Experimental data published in patent US12534477B2, “Compound having KHK inhibitory effect” (HANGZHOU ZHONGMEIHUADONG PHARMACEUTICAL CO., LTD., priority 2019, dated 2026).
Read-outs that look alike come from different tables or passages of the source.

Key:
[1] = target: Recombinant Human Ketohexokinase (KHK) (Homo sapiens (Human), UniProt P50053); assay: Ketohexokinase assay (KHK assay), ADP-Glo; assay type: biochemical
Protocol: • 1. EnVision multilabel reader, Perkin Elmer; • 2. OptiPlate 384-well microplate, Perkin Elmer, Cat. No. 6007290; • 3. Recombinant Human Ketohexokinase (KHK), R&D Cat. No.: 8177-HK-020, Lot No.: DDFK0117092; • 4. Fructose (D(−)-Fructose), SCR Cat. No.: 36003034; and • 5. ADP-Glo kinase assay kit, Promega_Cat. No.: V9101.
1. preparation of Dilution Buffer containing 50 mM hydroxyethylpiperazine […] (Hepes), 140 mM KCl, 3.5 mM MgCl2, and 0.01% bovine serum albumin (BSA), pH 7.4.
2. A working solution of ketohexokinase at 2.5 times concentration was prepared with Dilution Buffer, with 50 nM ketohexokinase and 12.5 mM fructose.
3. A working solution of adenosine triphosphate (ATP) at 2.5 times concentration was prepared with Dilution Buffer, with a concentration of 250 μM.
4. Each compound was diluted starting at a concentration of 500 μM, 3-fold diluted for 9 concentration points. The final concentration of the compound in the reaction system started from 10 μM and the final concentration of dimethyl sulfoxide (DMSO) was 2%.
5. A 96-well plate was prepared as a reaction plate, and was incubated at room temperature for 5 min after adding 6 μL ketohexokinase working solution at 2.5 times concentration to each well and further adding 3 μL compound working solution to each well.
6. The first well of each row was a positive control for a compound, i.e. the same volume of the buffer was added to replace the compound and ketohexokinase. The last well was a negative control for the compound, i.e. the same volume of Dilution Buffer was added instead of the compound.
7. 6 μL ATP working solution was added to each well in a 96-well reaction plate to initiate the kinase reaction. The kinase reaction was incubated in a constant temperature heater at 28° C. for 1 h.
1. A384 plate was prepared as a detection plate, and firstly 5 μL ADP-Glo reagent was added.
2. 5 μL kinase reaction mixture from the reaction plate was added to each well and incubated in a constant temperature heater at 28° C. for 30 min.
3. 10 μL kinase detection reagent was added to each well and incubated in a constant temperature heater at 28° C. for 30 min.
4. The detection plate was placed in an EnVision multilabel reader to read the chemiluminescent signal.

[2] = Liver-blood ratio, tissue distribution in rats; assay type: in vivo, SD rats; details: SD, rat, 1 mg/kg, PO 1 mpk
Protocol: Tissue distribution of compounds in SD rats was tested.
In the experiment, candidate compounds were formulated as clear solutions and administered to rats in a single oral dose (PO, 1 mpk). The vehicle for oral administration was a certain proportion of methylcellulose and Tween 80 in water. Whole blood was collected at a certain time and plasma was prepared, and tissues were collected at the corresponding time and prepared into tissue homogenates. Drug concentration was analyzed by LC-MS/MS, and pharmacokinetic parameters were calculated by Phoenix WinNonlin software.

[3] = tested on: fructose metabolism in mice; assay: Acute fructose feeding experiment in mice; assay type: in vivo; details: compound 30 mpk, oral fructose 1 g/kg
Protocol: The effect of test compounds on the fructose content in mice with high fructose intake was investigated.
All animals were acclimated for one week in an animal house, fed with normal chow and fasted for 16 hours before being given fructose.
1) The experiment began at −0.5 hr. A control group was given a certain volume of vehicle (a certain proportion of methylcellulose and Tween 80 in water), and an experimental group was given a certain dose of a solution of the compound (the administered volume was consistent with the vehicle).
2) 0.5 hour later and before administration of a fructose solution, a blood sample was collected at 0 hr, followed by oral administration of 1 g/kg of an aqueous fructose solution.
3) After the administration of fructose, blood samples were collected from saphenous vein of mice at 0.25, 0.5, 1, 2, 3 and 8 hr, and fructose concentration was analyzed by LC-MS/MS.

Sequence of Recombinant Human Ketohexokinase (KHK) (P50053 whole entry): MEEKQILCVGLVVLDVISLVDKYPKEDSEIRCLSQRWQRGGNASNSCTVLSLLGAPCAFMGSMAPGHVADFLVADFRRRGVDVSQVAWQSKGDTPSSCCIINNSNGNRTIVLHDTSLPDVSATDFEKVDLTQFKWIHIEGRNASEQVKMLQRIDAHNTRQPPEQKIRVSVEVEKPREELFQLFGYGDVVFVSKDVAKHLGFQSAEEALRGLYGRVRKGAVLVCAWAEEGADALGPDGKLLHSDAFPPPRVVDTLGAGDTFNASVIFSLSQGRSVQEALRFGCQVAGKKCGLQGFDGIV

SMILES | IC50 [1] [nM] | other results
C[C@H]1CCN1c1nc(Nc2ccc(C(=O)O)cc2)c2ccsc2n1 [WX012] | 9.4 | concentration at 1.5 h ([2]; liver, 1.5 h, read-out: Liver tissue concentration): 2100 nM; concentration at 2 h ([2]; liver, 2.0 h, read-out: Liver tissue concentration): 618 nM; concentration at 6 h ([2]; liver, 6.0 h, read-out: Liver tissue concentration): 634 nM; Kp at 1.5 h ([2]; liver/plasma, 1.5 h, read-out: Liver-blood ratio): 2.62; Kp at 2 h ([2]; liver/plasma, 2.0 h, read-out: Liver-blood ratio): 2.32; Kp at 6 h ([2]; liver/plasma, 6.0 h, read-out: Liver-blood ratio): 4.39; concentration at 1.5 h ([2]; plasma, 1.5 h, read-out: Plasma concentration): 810 nM; concentration at 2 h ([2]; plasma, 2.0 h, read-out: Plasma concentration): 273 nM; concentration at 6 h ([2]; plasma, 6.0 h, read-out: Plasma concentration): 145 nM
C[C@H]1CCN1c1nc(N2C[C@@H]3[C@@H](CC(=O)O)[C@@H]3C2)c2scc(C#N)c2n1 [WX023] | 210 | –
C[C@H]1CCN1c1nc(N2C[C@@H]3[C@@H](CC(=O)O)[C@@H]3C2)c2sccc2n1 [WX046] | 700 | –
C[C@H]1CCN1c1nc(-c2cccc(CCC(=O)O)n2)c2ccsc2n1 [WX047] | 630 | –
C[C@H]1CCN1c1nc(N2CC3(C[C@@H]3CC(=O)O)C2)c2cc(Cl)sc2n1 [WX056] | 360 | –
C[C@H]1CCN1c1nc(-c2ccnc(CCC(=O)O)c2)c2ccsc2n1 [WX033] | 71 | –
Cc1csc2nc(N3CC[C@@H]3C)nc(Nc3ccc(CC(=O)O)cc3)c12 [WX007] | 16 | –
C[C@H]1CCN1c1nc(N2CC3(C[C@H]3C(=O)O)C2)c2cccc(F)c2n1 [WX040] | 320 | –
C[C@H]1CCN1c1nc(N2C[C@@H]3[C@@H](CC(=O)O)[C@@H]3C2)c2cccc(F)c2n1 [WX024] | 61 | AUC of integral fructose concentration for dosed group [3]: 1858 nM·h; AUC of integral fructose concentration of dosed group/AUC of Integral fructose concentration of control group [3]: 13.4
C[C@H]1CCN1c1nc(-c2cncc(CCC(=O)O)c2)c2ccsc2n1 [WX048] | 92 | –
C[C@H]1CCN1c1nc(Nc2cc(F)c(CC(=O)O)c(F)c2)c2ccsc2n1 [WX014] | 14 | –
Cc1csc2nc(N3CC[C@@H]3C)nc(N3C[C@@H]4C(CC(=O)O)[C@@H]4C3)c12 (stereo partly shown) [WX008] | 210 | –
C[C@H]1CCN1c1nc(N2CC3(C[C@@H]3C(=O)O)C2)c2cc(Cl)sc2n1 [WX045] | 30 | –
C[C@H]1CCN1c1nc(N2CC3(CCC3C(=O)O)C2)c2cc(Cl)sc2n1 (stereo partly shown) [WX038] | 480 | –
C[C@H]1CCN1c1nc(N2C[C@@H]3[C@@H](CC(=O)O)[C@@H]3C2)c2cc(F)sc2n1 [WX028] | 50 | –
C[C@H]1CCN1c1nc(N2CC3(C[C@H]3CC(=O)O)C2)c2cc(Cl)sc2n1 [WX057] | 200 | –
C[C@H]1CCN1c1nc(N2CC3(C[C@H]3C(=O)O)C2)c2ccsc2n1 [WX019] | 110 | AUC of integral fructose concentration for dosed group [3]: 849 nM·h; AUC of integral fructose concentration of dosed group/AUC of Integral fructose concentration of control group [3]: 6.1
C[C@H]1CCN1c1nc(N2CC3(CC3C(=O)O)C2)c2c(F)csc2n1 (stereo partly shown) [WX037] | 150 | –
C[C@H]1CCN1c1nc(N2CC3(CC3C(=O)O)C2)c2cc(Cl)sc2n1 (stereo partly shown) [WX036] | 69 | –
C[C@H]1CCN1c1nc2c(c(N3C[C@@H]4[C@@H](CC(=O)O)[C@@H]4C3)n1)CSC2 [WX021] | 160 | –
C[C@H]1CCN1c1nc(N2CCC3(CC3C(=O)O)C2)c2ccsc2n1 (stereo partly shown) [WX027] | 250 | –
C[C@H]1CCN1c1nc(NC2CC3(C2)CC3C(=O)O)c2cc(Cl)sc2n1 (stereo partly shown) [WX051] | 69 | –
C[C@H]1CCN1c1nc(N2CC3(CC3C(=O)O)C2)c2ccsc2n1 (stereo partly shown) [WX009] | 100 | –
C[C@H]1CCN1c1nc(-c2cncc(OCC(=O)O)c2)c2ccsc2n1 [WX039] | 36 | –

SMILES | IC50 [1] [nM] | other results
C[C@H]1CCN1c1nc2c(c(N3C[C@@H]4[C@@H](CC(=O)O)[C@@H]4C3)n1)CCS2 [WX026] | 91 | AUC of integral fructose concentration for dosed group [3]: 993 nM·h; AUC of integral fructose concentration of dosed group/AUC of Integral fructose concentration of control group [3]: 8.9
C[C@H]1CCN1c1nc(N2CC3(C2)CC3(C)C(=O)O)c2cc(Cl)sc2n1 (stereo partly shown) [WX049] | 210 | –
C[C@H]1CCN1c1nc(N2CC3(CC3C(=O)O)C2)c2cccc(F)c2n1 (stereo partly shown) [WX034] | 110 | –
C[C@H]1CCN1c1nc(-c2cccc(CCC(=O)O)c2)c2ccsc2n1 [WX016] | 32 | –
C[C@H]1CCN1c1nc(N2CC3(C[C@@H]3C(=O)O)C2)c2cccc(F)c2n1 [WX041] | 52 | AUC of integral fructose concentration for dosed group [3]: 1704 nM·h; AUC of integral fructose concentration of dosed group/AUC of Integral fructose concentration of control group [3]: 6.5
C[C@H]1CCN1c1nc(-c2ccc(CC(=O)O)c(F)c2)c2ccsc2n1 [WX022] | 200 | –
C[C@H]1CCN1c1nc(N2CC3(C[C@H]3CC(=O)O)C2)c2ccsc2n1 [WX055] | 650 | –
C[C@H]1CCN1c1nc(N2C[C@@H]3[C@@H](CC(=O)O)[C@@H]3C2)c2cc(Cl)sc2n1 [WX029] | 28 | AUC of integral fructose concentration for dosed group [3]: 1687 nM·h; AUC of integral fructose concentration of dosed group/AUC of Integral fructose concentration of control group [3]: 15.1
C[C@H]1CCN1c1nc(N2CC(CC(=O)O)C2)c2ccsc2n1 [WX018] | 390 | –
C[C@H]1CCN1c1nc(N2CC[C@H](CC(=O)O)C2)c2ccsc2n1 [WX025] | 240 | –
C[C@H]1CCN1c1nc(N2CC3(C[C@@H]3CC(=O)O)C2)c2ccsc2n1 [WX054] | 1000 | –
C[C@H]1CCN1c1nc(N2CC3(C[C@H]3C(=O)O)C2)c2cc(Cl)sc2n1 [WX044] | 81 | –
C[C@H]1CCN1c1nc(Nc2ccc(CC(=O)O)c(F)c2)c2ccsc2n1 [WX010] | 15 | –
C[C@H]1CCN1c1nc(N2CC3(C[C@@H]3C(=O)O)C2)c2ccsc2n1 [WX020] | 130 | AUC of integral fructose concentration for dosed group [3]: 1180 nM·h; AUC of integral fructose concentration of dosed group/AUC of Integral fructose concentration of control group [3]: 8.5
C[C@H]1CCN1c1nc(NC2CC(C(=O)O)C2)c2ccsc2n1 (stereo partly shown) [WX032] | 150 | –
C[C@H]1CCN1c1nc(Nc2cc(F)c(C(=O)O)c(F)c2)c2ccsc2n1 [WX015] | 6.7 | –
C[C@H]1CCN1c1nc(-c2cccc(/C=C/C(=O)O)c2)c2ccsc2n1 [WX017] | 20 | –
C[C@H]1CCN1c1nc(Nc2ccc(C(=O)O)c(C#N)c2)c2ccsc2n1 [WX011] | 17 | –
C[C@H]1CCN1c1nc(Nc2ccc(CC(=O)O)cc2)c2ncsc2n1 [WX003] | 110 | –
C[C@H]1CCN1c1nc(N2C[C@@H]3[C@@H](CC(=O)O)[C@@H]3C2)nc2ncsc12 [WX005] | 650 | –
C[C@H]1CCN1c1nc(N2C[C@@H]3[C@@H](CC(=O)O)[C@@H]3C2)c2scnc2n1 [WX002] | 190 | –
C[C@H]1CCN1c1nc(N2C[C@@H]3[C@@H](CC(=O)O)[C@@H]3C2)c2c(F)csc2n1 [WX030] | 31 | AUC of integral fructose concentration for dosed group [3]: 1029 nM·h; AUC of integral fructose concentration of dosed group/AUC of Integral fructose concentration of control group [3]: 9.2
C[C@H]1CCN1c1nc(N2CC3(CC3C(=O)O)C2)c2cccc(Cl)c2n1 (stereo partly shown) [WX050] | 260 | –
